Data as given in the NIST ThermoML archive (doi:10.1021/je900342a).
Numbers after ± are expanded uncertainties.

Tests used:
[1] = Crystal; DTA
[2] = Molar enthalpy of transition or fusion; conditions: Crystal; DSC

SMILES	Normal melting temperature [1]	Molar enthalpy of transition or fusion [2]
CCCCCCCCCCCCCCCC(=O)OCC(COC(=O)CCCCCCCCCCCCCCC)OC(=O)CCCCCCCCCCCCCCC [1,2,3-propanetriyl tri(hexadecanoate)]	67.4 ± 0.5 °C	163 ± 4.2 kJ/mol
CC(C)Cc1ccc(C(C)C(=O)O)cc1 (stereo not given) [ibuprofen]	74.5 ± 0.5 °C	–
CCCCCCCCCCCCCC(=O)O [tetradecanoic acid]	53.1 ± 0.5 °C	45.8 ± 1.2 kJ/mol
